Experimental data reported in patent US20250255847A1, “[…]s: Novel Drugs for Triple Negative Breast Cancer” (SIMMARON RSEARCH INC, priority 2024, published 2025).

Tested on: TM00096 human TNBC tumor
Assay: Tumor growth in patient-derived xenograft (PDX) mouse model of TNBC
Type: in vivo
Details: for tumor growth by infrared 2DG image analysis: 2 mg/Kg Bwt i.p., end of 4th week; for final tumor volume (mean±SD): after 4 weeks (2 weeks dosing 2 mg/Kg Bwt i.p. alternate days + 2 weeks follow-up), vehicle 949.15±769.15; for initial tumor volume (mean±SD): day 0, 2 mg/Kg Bwt i.p. every alternate day for two weeks
Experimental: FIG. 12 illustrates an embodiment of the present invention and illustrates SIM-1 and SIM-2 arrest the growth of human TNBC tumor in patient-derived xenograft mouse model. TM00096 tumor (origin of invasive ductal carcinoma isolated from a person) was seeded in the flank of 6-week-old female SCID mice by Jackson Laboratory and then shipped to our research facility. Once the tumor reached ˜4 mm in size (˜30 mm^3 in volume), n=6 mice/group were treated by vehicle (5% DMSO), SIM-1 and SIM-2 (2 mg/Kg Bwt mixed with 5% DMSO) via i.p. for 2 weeks in every alternate day. The tumor size was monitored accordingly during the treatment and two more weeks after the last dose to evaluate the recurrence. After 4 weeks, Mice received IRDye 800-tagged 2DG (2-deoxy glucose) probe via tail vein and then imaged in infrared scanner. […] Red spots enclosed in a squares are tumor tissue. Other red spots are non-specific organs with high metabolic activity. (B) Tumor size was measured every alternate day for 4 weeks by a digital caliper and then the volume was calculated using the formula 0.5*Length*Width^2. […] (D) Body weight was recorded during the course of the study to monitor the adverse metabolic outcome due to the drug administration. (E) The heart rate was monitored at 0-, 7-, 14-, and 28-days post SIM-1 and SIM-2 treatments by MouseStat Jr console (Kent Scientific) as per the manufacturer's instruction. (F) At the end of the study, the gross motor performance was recorded for n=6 (i) vehicle, (ii) SIM-1-, and (iii) SIM-2-treated mice. […] Gross movement parameters including (G) the total distance traveled, and (H) the average speed were monitored and plotted by scatter histograms (n=6/group; not significant as shown by one-way ANOVA).
Acquisition, housing, and treatment of PDX mice. Grade 3 invasive ductal carcinoma tumor fragments were harvested from a patient, genotyped for ER-, PR-, and Her2low, and were engrafted in the flank region of 6-to-7-week-old female NOD.Cg-Prkdcscid Il2rgtm1Wjl/SzJ mouse. These tumor-bearing mice were commercially purchased from Jackson Laboratories (Cat #TM00096). Since these mice are severely immunocompromised, special housing was required in a barrier room with restricted air flow and sterile foods. All animal studies were performed under an Institutional Animal Care and Use Committee-approved protocol (Study ID #). […] For the treatment, 2 mg/Kg bwt doses of both SIM-1 and SIM-2 were dissolved in 5% DMSO and then administered intraperitoneally every alternate day for two weeks and followed up for additional two weeks. To ensure safety and toxicity, vital health parameters such as body weight, heart rate, and body temperature were recorded every alternate day for one month. Tumor growth was assessed every alternate day for one month by a digital caliper. Tumor volume was estimated by the formula 0.5× (length×width2). The treatment started once the tumor reached 4 mm in size with an approximate volume of ˜30 mm^3. Mice received drugs for two weeks and left untreated for an additional two weeks to monitor the effect of drug withdrawal on the tumor size. On the penultimate day of the study, mice were injected with 100 μL of […] 2DG dye. The next day, mice were euthanized and then imaged in a Li—CoR infrared scanner to measure tumor size. After that, tumor tissues were harvested from the flank, washed in cold PBS, again imaged with a scalebar, and finally preserved in a −80° C. freezer for subsequent analyses such as genetic and immunoassays.
This example provides a representative experiment of the present invention that studies the effects of both SIM-1 and SIM-2 on the regression and growth arrest of tumors in vivo in the PDX mouse model of TNBC. […]

Row | SMILES | tumor growth by infrared 2DG image analysis | final tumor volume (mean±SD) [mm^3] | initial tumor volume (mean±SD) [mm^3]
1 | CCOC(=O)c1c(NC(C)=O)sc2c(Cl)c(/C=N/O)ccc12 [SIM-2, ethyl 2-acetamido-7-chloro-6-(hydroxyiminomethyl)-1-benzothiophene-3-carboxylate] | significantly arrested the growth | 134.09±41.77 | 37.43±7.07
2 | O=C(O)CCC(=O)NCc1csc2ccc(Cl)cc12 [SIM-1, 4-[(5-chloro-1-benzothiophen-3-yl)methylamino]-4-oxobutanoic acid] | significantly arrested the growth | 126.69±29.98 | 37.65±15.41
